We go through twelve compounds from PubChem BioAssay AID1336 (NMMLSC, 2008).

Molecules are shown by their SMILES.

This assay has as its target Ras-related protein Rab-7a (dog), GTP binding. The assay is described as follows: Rab7 GTP binding inhibitors, potency, dose response, biochemical, wildtype, multiplex bead flow cytometry (AID 1336). To be noted: bead-based flow cytometry, fluorescent GTP binding to Rab7.

As to `O=C1CN=C(c2ccccc2)c2cc(Br)ccc2N1Cc1cc(=O)n2ccccc2n1`, the EC50 is 2.71 µM.
The value for `Cc1sc(-n2c(C)cc(C=C3C(=O)NC(=O)NC3=O)c2C)c(C#N)c1C` was 28.9 µM; that for `COC(=O)c1cccnc1SCCc1ccccc1` was 14.2 µM; that for `Cc1nn(Cc2ccccc2)c(Cl)c1C(=O)O` was 3.54 µM.
The value for `O=C(O)c1ccccc1Sc1ncnc2sc3c(c12)CCC3` was 2.62 µM; that for `Cc1cc(C(=O)Oc2ccccc2C(=O)O)c(C)o1` was 0.81 µM; that for `N#Cc1c(-c2ccccc2)nc(SCC(=O)Nc2ccccc2)[nH]c1=O` was 6.42 µM.
The value for `CC(C)C(NCc1c(Cl)cccc1Cl)C(=O)O` (configuration not stated) was 2.23 µM.
For `CCOc1ccc(/C=C2\SC(N3CCc4ccccc4C3)=NC2=O)cc1`, the EC50 was 11.5 µM.
As to `Cc1cc(C(=O)O)sc1CNCc1ccccc1Cl`, the EC50 is 0.423 µM.
The value for `O=C(O)/C=C/c1cn(Cc2ccccc2)nc1-c1cccs1` was 2.35 µM; that for `O=C(O)c1ccccc1NCCc1ccc(Cl)cc1` was 0.339 µM.

Usually EC50 stands for the concentration at which the effect is half-maximal.
